Measured values published in US20250082787A1, “ALGINIC ACID-BASED INJECTABLE HYDROGEL SYSTEM” (National Cancer Center, priority 2018, published 2025).

Legend:
[1] = Persistence of fluorescence after subcutaneous injection in nude mouse (IVIS fluorescence image); assay type: in vivo
Method: In order to see the fluorescence persistence of the alginic acid hydrogel containing indocyanine green-human serum albumin in a nude mouse, it was injected in the form of a gel subcutaneously to the nude mouse through a dual syringe, and then the labeling performance over time was photographed with a fluorescent image device (IVIS Lumina XR, Xenogen Corporation-Caliper, CA, USA). Three solutions to be injected into the animal model were prepared in the same manner as in Preparation Examples 7 to 9. FIG. 7 is a schematic diagram of injecting an alginic acid hydrogel containing indocyanine green-human serum albumin subcutaneously to a nude mouse using a dual syringe.
The solutions of Preparation Examples 7 to 9 were injected subcutaneously to a nude mouse, respectively so that the total volume was 100 μL using a dual syringe.

[2] = 2 to 100 μM in distilled water, λex=720 nm
Method: Before developing a surgical marker using indocyanine green and human serum albumin conjugate, in order to determine the appropriate concentration of indocyanine green and human serum albumin conjugate, the two substances were mixed by each concentration to observe change in fluorescence (λex=720 nm) and absorbance.
3 mL of distilled water was added to 1.5 mg of indocyanine green (ICG, purchased from Sigma-Aldrich) and dissolved by stirring to prepare a high concentration of indocyanine green solution. Distilled water was added to the high concentration of indocyanine green solution and mixed through stirring to prepared a 2 to 100 μM solution.

In the case of `CC1(C)C(/C=C/C=C/C=C/C=C2\N(CCCCS(=O)(=O)O)c3ccc4ccccc4c3C2(C)C)=[N+](CCCCS(=O)(=O)[O-])c2ccc3ccccc3c21` [indocyanine green], the “time fluorescence was maintained / emitted (FIG. 8)” value ([1]; 100 μL subcutaneous, nude mouse, λex=780 nm, λem=845 nm) is reported as “about one”, the “time at which fluorescence (ROI value) was greatest” value ([1]; FIG. 10A, nude mouse) is reported as 6 h and the “time in which fluorescence signals almost disappeared” value ([1]; FIG. 10C, nude mouse) is reported as 48 h. For the same compound, the “fluorescence remaining compared to immediately after injection” value ([1]; ROI value, when one day passed) was 16%, the “time after which injected solution spread and disappeared at injection site (FIG. 9)” value ([1]; appearance of injected site, nude mouse) was “about 24 hours” and the “concentration up to which maximum fluorescence intensity increased” value [2] was “about 20 μM”.
